From patent publication US11203613B2, “Peptidomimetic proteasome inhibitors” (CORNELL UNIVERSITY, priority 2017, dated 2021)
pIC50: −log10 of the molar value.

Target: Human Constitutive (Hu C-20S) β5 Active Subunit (Homo sapiens, UniProt P28074)
Experiment: IC50 determination, human constitutive 20S proteasome β5c (suc-LLVY-AMC hydrolysis)
Assay type: biochemical
Settings: Table 3; IC50 against human constitutive β5 active subunit; read-out: Hu-C20S β5

CC(C)CS(=O)(=O)N[C@@H](CC(=O)N1CCCC[C@@H]1C)C(=O)N[C@@H](C)c1ncc(-c2ccc(F)cc2F)[nH]1 [CEN-104, (S)—N—((S)-1-(5-(2,4-Difluorophenyl)-1H-imidazol-2-yl)ethyl)-4-((S)-2-methylpiperidin-1-yl)-2-((2-methylpropyl)sulfonamido)-4-oxobutanamide]
pIC50: 5.31

CC[C@H]1CCCCN1C(=O)C[C@H](NC(=O)CCC(C)(C)C)C(=O)N[C@@H](C)c1nc2ccccc2[nH]1 [CEN-29, N—((S)-1-(((S)-1-(1H-Benzo[d]imidazol-2-yl)ethyl)amino)-4-((S)-2-ethylpiperidin-1-yl)-1,4-dioxobutan-2-yl)-4,4-dimethylpentanamide]
pIC50: 5.16

CC(C)c1noc(N[C@@H](CC(=O)N2CCCC[C@@H]2C)C(=O)N[C@@H](C)c2ncc(-c3ccc(F)cc3F)[nH]2)n1 [CEN-95, (S)—N—((S)-1-(5-(2,4-Difluorophenyl)-1H-imidazol-2-yl)ethyl)-2-((3-isopropyl-1,2,4-oxadiazol-5-yl)amino)-4-((S)-2-methylpiperidin-1-yl)-4-oxobutanamide]
pIC50: 5.64

C[C@H](NC(=O)[C@H](CC(=O)N1CCCC[C@@H]1C)NC(=O)Cc1ccccc1)c1ncc(-c2ccc(F)cc2F)[nH]1 [CEN-102, (S)—N—((S)-1-(5-(2,4-Difluorophenyl)-1H-imidazol-2-yl)ethyl)-4-((S)-2-methylpiperidin-1-yl)-4-oxo-2-(2-phenylacetamido)butanamide]
pIC50: 4.99

C[C@H](NC(=O)[C@H](CC(=O)N1CCCC[C@@H]1C)NC(=O)C1CCC1)c1ncc(-c2ccc(F)cc2F)[nH]1 [CEN-82, N—((S)-1-(((S)-1-(5-(2,4-Difluorophenyl)-1H-imidazol-2-yl)ethyl)amino)-4-((S)-2-methylpiperidin-1-yl)-1,4-dioxobutan-2-yl)cyclobutanecarboxamide]
pIC50: 5.62

C[C@H](NC(=O)[C@H](CC(=O)N1CCCC[C@@H]1C)NC(=O)CC1CCOCC1)c1ncc(-c2ccc(F)cc2F)[nH]1 [CEN-106, (S)—N—((S)-1-(5-(2,4-Difluorophenyl)-1H-imidazol-2-yl)ethyl)-4-((S)-2-methylpiperidin-1-yl)-4-oxo-2-(2-(tetrahydro-2H-pyran-4-yl)acetamido)butanamide]
pIC50: 4.89

CC(C)CCC(=O)N[C@@H](CC(=O)N1CCCCC1C(C)C)C(=O)N[C@@H](C)c1ncc(-c2ccc(F)cc2F)[nH]1 (stereo partly drawn) [CEN-107, N-((2S)-1-(((S)-1-(5-(2,4-Difluorophenyl)-1H-imidazol-2-yl)ethyl)amino)-4-(2-isopropylpiperidin-1-yl)-1,4-dioxobutan-2-yl)-4-methylpentanamide]
pIC50: 5.55

CC[C@H]1CCCCN1C(=O)C[C@H](NC(=O)C1CC(C)(C)C1)C(=O)N[C@@H](C)c1nc2c(F)cccc2[nH]1 [CEN-9, N—((S)-4-((S)-2-Ethylpiperidin-1-yl)-1-(((S)-1-(4-fluoro-1H-benzo[d]imidazol-2-yl)ethyl)amino)-1,4-dioxobutan-2-yl)-3,3-dimethylcyclobutane-1-carboxamide]
pIC50: 5.36

CC[C@H]1CCCCN1C(=O)C[C@H](Nc1nc2ccc(C)cc2o1)C(=O)N[C@@H](C)c1nc2c(F)cccc2[nH]1 [CEN-19, (S)-4-((S)-2-Ethylpiperidin-1-yl)-N—((S)-1-(4-fluoro-1H-benzo[d]imidazol-2-yl)ethyl)-2-((6-methylbenzo[d]oxazol-2-yl)amino)-4-oxobutanamide]
pIC50: 5.96

CC[C@H]1CCCCN1C(=O)C[C@H](N)C(=O)N[C@@H](C)c1nc2c(F)cccc2[nH]1 [CEN-1, (S)-2-Amino-4-((S)-2-ethylpiperidin-1-yl)-N—((S)-1-(4-fluoro-1H-benzo[d]imidazol-2-yl)ethyl)-4-oxobutanamide]
pIC50: 4.85

C[C@H](NC(=O)[C@H](CC(=O)N1CCC[C@@H]1C)NC(=O)CCC(C)(C)C)c1ncc(-c2ccc(F)cc2F)[nH]1 [CEN-89, N—((S)-1-(((S)-1-(5-(2,4-Difluorophenyl)-1H-imidazol-2-yl)ethyl)amino)-4-((S)-2-methylpyrrolidin-1-yl)-1,4-dioxobutan-2-yl)-4,4-dimethylpentanamide]
pIC50: 5.24

CC[C@H]1CCCCN1C(=O)C[C@H](NC(=O)N(C)CC(C)C)C(=O)N[C@@H](C)c1nc2c(F)cccc2[nH]1 [CEN-15, (S)-4-((S)-2-Ethylpiperidin-1-yl)-N—((S)-1-(4-fluoro-1H-benzo[d]imidazol-2-yl)ethyl)-2-(3-isobutyl-3-methylureido)-4-oxobutanamide]
pIC50: 5.30

CC(C)CCS(=O)(=O)N[C@@H](CC(=O)N1CCC[C@@H]1c1ccccc1)C(=O)N[C@H](C)c1nc2ccccc2[nH]1 [CEN-60, (S)—N—((R)-1-(1H-Benzo[d]imidazol-2-yl)ethyl)-2-((3-methylbutyl)sulfonamido)-4-oxo-4-((R)-2-phenylpyrrolidin-1-yl)butanamide]
pIC50: 4.97

CC(C)CCC(=O)N[C@@H](CC(=O)N1CCC[C@@H]1c1ccccc1)C(=O)N[C@@H](C)c1nc2ccccc2[nH]1 [CEN-48, N—((S)-1-(((S)-1-(1H-Benzo[d]imidazol-2-yl)ethyl)amino)-1,4-dioxo-4-((R)-2-phenylpyrrolidin-1-yl)butan-2-yl)-4-methylpentanamide]
pIC50: 4.30

C[C@H](NC(=O)[C@@H](N)CC(=O)N1CCCC[C@@H]1C)c1ncc(-c2ccc(F)cc2F)[nH]1 [CEN-76, (S)-2-Amino-N—((S)-1-(5-(2,4-difluorophenyl)-1H-imidazol-2-yl)ethyl)-4-((S)-2-methylpiperidin-1-yl)-4-oxobutanamide]
pIC50: 4.85

C[C@H](NC(=O)[C@H](CC(=O)N1CCC[C@@H]1c1ccccc1)NC(=O)CC1CC1)c1ncc(Cc2ccccc2)[nH]1 [CEN-121, (S)—N—((S)-1-(5-Benzyl-1H-imidazol-2-yl)ethyl)-2-(2-cyclopropylacetamido)-4-oxo-4-((R)-2-phenylpyrrolidin-1-yl)butanamide]
pIC50: 4.97

C[C@H](NC(=O)[C@H](CC(=O)N1CCCC[C@@H]1C)NC(=O)C1CC(C)(C)C1)c1ncc(-c2ccc(F)cc2F)[nH]1 [CEN-96, N—((S)-1-(((S)-1-(5-(2,4-difluorophenyl)-1H-imidazol-2-yl)ethyl)amino)-4-((S)-2-methylpiperidin-1-yl)-1,4-dioxobutan-2-yl)-3,3-dimethylcyclobutane-1-carboxamide]
pIC50: 5.24

C[C@H](NC(=O)[C@H](CC(=O)N1CCCC[C@@H]1C)NC(=O)N(C)Cc1ccccc1)c1nc2c(F)cccc2[nH]1 [CEN-56, (S)-2-(3-Benzyl-3-methylureido)-N—((S)-1-(4-fluoro-1H-benzo[d]imidazol-2-yl)ethyl)-4-((S)-2-methylpiperidin-1-yl)-4-oxobutanamide]
pIC50: 4.76

CC(C)CCC(=O)N[C@@H](CC(=O)N1CCCC[C@H]1C)C(=O)N[C@@H](C)c1ncc(-c2ccc(F)cc2F)[nH]1 [CEN-91, N—((S)-1-(((S)-1-(5-(2,4-Difluorophenyl)-1H-imidazol-2-yl)ethyl)amino)-4-((R)-2-methylpiperidin-1-yl)-1,4-dioxobutan-2-yl)-4-methylpentanamide]
pIC50: 4.98

CC[C@H]1CCCCN1C(=O)C[C@H](Nc1nc(Cc2ccc(F)cc2)no1)C(=O)N[C@@H](C)c1nc2c(F)cccc2[nH]1 [CEN-27, (S)-4-((S)-2-Ethylpiperidin-1-yl)-N—((S)-1-(4-fluoro-1H-benzo[d]imidazol-2-yl)ethyl)-2-((3-(4-fluorobenzyl)-1,2,4-oxadiazol-5-yl)amino)-4-oxobutanamide]
pIC50: 5.85

CC[C@H]1CCCCN1C(=O)C[C@H](NC(=O)N1CCCCC1)C(=O)N[C@@H](C)c1nc2c(F)cccc2[nH]1 [CEN-12, N—((S)-4-((S)-2-Ethylpiperidin-1-yl)-1-(((S)-1-(4-fluoro-1H-benzo[d]imidazol-2-yl)ethyl)amino)-1,4-dioxobutan-2-yl)piperidine-1-carboxamide]
pIC50: 5.52

CC(C)CCC(=O)N[C@@H](CC(=O)N1CCC[C@@H]1c1ccccc1)C(=O)NC(C)c1nc2ccccc2[nH]1 (stereo partly drawn) [CEN-47, N-((2S)-1-((1-(1H-Benzo[d]imidazol-2-yl)ethyl)amino)-1,4-dioxo-4-((R)-2-phenylpyrrolidin-1-yl)butan-2-yl)-4-methylpentanamide]
pIC50: 4.53

CC[C@H]1CCCCN1C(=O)C[C@H](NC(=O)CC(F)(F)F)C(=O)N[C@@H](C)c1nc2c(F)cccc2[nH]1 [CEN-7, (S)-4-((S)-2-Ethylpiperidin-1-yl)-N—((S)-1-(4-fluoro-1H-benzo[d]imidazol-2-yl)ethyl)-4-oxo-2-(3,3,3-trifluoropropanamido)butanamide]
pIC50: 5.38

CC(C)CCC(=O)N[C@@H](CC(=O)N1CCCC[C@@H]1C(F)(F)F)C(=O)N[C@@H](C)c1ncc(-c2ccc(F)cc2F)[nH]1 [CEN-111, N—((S)-1-(((S)-1-(5-(2,4-Difluorophenyl)-1H-imidazol-2-yl)ethyl)amino)-1,4-dioxo-4-((R)-2-(trifluoromethyl)piperidin-1-yl)butan-2-yl)-4-methylpentanamide]
pIC50: 5.31

C[C@@H](NC(=O)[C@H](CC(=O)N1CCCC[C@@H]1C)NC(=O)CCC(C)(C)C)c1nc2ccccc2[nH]1 [CEN-37, N—((S)-1-(((R)-1-(1H-Benzo[d]imidazol-2-yl)ethyl)amino)-4-((S)-2-methylpiperidin-1-yl)-1,4-dioxobutan-2-yl)-4,4-dimethylpentanamide]
pIC50: 4.76

C[C@H](NC(=O)[C@H](CC(=O)N1CCCC[C@@H]1C)NC(=O)OCc1ccccc1)c1nc2c(F)cccc2[nH]1 [CEN-50, Benzyl ((S)-1-(((S)-1-(4-Fluoro-1H-benzo[d]Imidazol-2-yl)ethyl)amino)-4-((S)-2-methylpiperidin-1-yl)-1,4-dioxobutan-2-yl)carbamate]
pIC50: 4.83

CC(C)C1CC1C(=O)N[C@@H](CC(=O)N1CCCC[C@@H]1C)C(=O)N[C@@H](C)c1nc2c(F)cccc2[nH]1 (stereo partly drawn) [CEN-40, N—((S)-1-(((S)-1-(4-Fluoro-1H-benzo[d]Imidazol-2-yl)ethyl)amino)-4-((S)-2-methylpiperidin-1-yl)-1,4-dioxobutan-2-yl)-2-isopropylcyclopropane-1-carboxamide]
pIC50: 5.57

CC[C@H]1CCCCN1C(=O)C[C@H](NC(=O)CCC(C)C)C(=O)N[C@@H](C)c1nc2c(F)cccc2[nH]1 [CEN-3, N—((S)-4-((S)-2-Ethylpiperidin-1-yl)-1-(((S)-1-(4-fluoro-1H-benzo[d]imidazol-2-yl)ethyl)amino)-1,4-dioxobutan-2-yl)-4-methylpentanamide]
pIC50: 4.97
